# Values joined by “and” are separate entries in the source; they are usually repeats but may differ in a detail not shown here. Equal entries are not always repeated. Where two headings read alike, the source gives them in different places.
# Assays:
# Isolated rat hearts = assay: Improved functional recovery in isolated hearts (Langendorff, post-ischemic LVDP); conditions: 30 min ischemia, 30 min reperfusion, number in brackets = hearts
# Experimental: Isolated rat hearts were cannulated via the ascending aorta and attached to a perfusion apparatus according to the method of Langendorff. The hearts were perfused at a constant pressure of 100 cm of H2O with a modified Krebs-Henseleit buffer (pH 7.4) at 37°C. As a measure of heart function, left ventricular developed pressure (LVDP) was continuously monitored. Following equilibration of the hearts for a period of 30 min., the hearts were subjected to reduced flow i.e. ischemia, by reducing the pressure to 10 cm of H2O for 30 min. Flow was then restored by returning the pressure to its original level (100 cm of H2O) for a further 30 min.
# [1] = tested on: longitudinal muscle from the guinea pig ileum; assay: Inhibition of stimulated contraction in isolated ileum; conditions: concentration which inhibited electrically stimulated contraction by 50%, read-out: IC50
# Experimental: Parallel platinum electrodes were used to deliver electrical current at 1 minute intervals at a voltage adequate to induce contraction of 90% of maximal.
# ischemic rat hearts = assay: Rat heart ischemia model, tissue adenosine levels; format: in vivo, rats; conditions: intraperitoneal injection, hearts excised after 60 minutes, incubated 60 minutes at 37°C, HPLC
# Experimental: Male rats were injected intraperitonealy with either the AICA riboside analog, AICA riboside or saline, as a control. After 60 minutes, the hearts were excised and incubated at 37°C for a further 60 minutes. Tissue extracts were prepared and analyzed for adenosine by high performance liquid chromatography (HPLC). […]
# [2] = tested on: coronary endothelial cells; assay: Inhibition of adenosine utilization in cell culture; format: cell-based; conditions: Endothelial cell, 1 µM [3H] adenosine, 15 minutes, read-out: Inhibition of Adenosine Utilization (%)
# Experimental: Inhibition of adenosine utilization was determined by measuring the concentration of extracellular adenosine by scintillation counting following separation by thin layer chromatography (TLC).
# [3] = target: T1, NBTI-specific adenosine transport site (Homo sapiens, UniProt Q99808); assay: [3H]-NBTI binding assay; conditions: 50% displacement of bound [3H]-NBTI (0.5 nM); neuronal membrane protein, 30 minutes, pH 7.4, room temperature; read-out: ED50 (the source's name)
# T1 construct: incubated for 30 minutes with 0.5 mg neuronal membrane protein together with 0.5 nM [^3H]-NBTI; from tissue
# T1 sequence (Q99808 1-456): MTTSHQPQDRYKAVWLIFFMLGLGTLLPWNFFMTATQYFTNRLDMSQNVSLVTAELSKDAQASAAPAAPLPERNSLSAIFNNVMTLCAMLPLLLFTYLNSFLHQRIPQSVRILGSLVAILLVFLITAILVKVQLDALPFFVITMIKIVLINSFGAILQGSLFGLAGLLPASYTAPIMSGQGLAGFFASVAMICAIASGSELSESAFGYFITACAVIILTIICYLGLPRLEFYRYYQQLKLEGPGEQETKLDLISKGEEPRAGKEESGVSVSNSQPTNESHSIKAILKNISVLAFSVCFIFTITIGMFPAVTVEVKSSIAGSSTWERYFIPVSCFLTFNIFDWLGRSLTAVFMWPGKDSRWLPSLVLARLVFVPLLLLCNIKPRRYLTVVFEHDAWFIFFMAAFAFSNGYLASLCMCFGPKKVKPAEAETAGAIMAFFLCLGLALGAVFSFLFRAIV
# Experimental: Increasing concentrations of the test compounds were incubated for 30 minutes with 0.5 mg neuronal membrane protein together with 0.5 nM [^3H]-NBTI in a Tris buffer (pH 7.4) at room temperature. The assays were quenched and membranes collected by rapid filtration. Filters were then solubilized and radioactivity determined by scintillation counting.
# [4] = tested on: coronary endothelial cells; assay: Adenosine release from isolated cells under net ATP breakdown; format: cell-based; conditions: 50 µM test compound
# Experimental: In this experimental model the cells were treated with 50 µM of the test compound and incubated for 16 hours at 37°C. Cells were then washed with phosphate-buffered saline and resuspended in standard culture medium containing no glucose (to inhibit glycolysis), 50 µM antimycin A (to inhibit oxidative phosphorylation) and 20 µM deoxycoformycin (to inhibit adenosine utilization by adenosine deaminase). This treatment was designed to simulate ischemic condition by inducing net ATP breakdown. Media was then processed for HPLC.
# [5] = tested on: platelet aggregation in human whole blood; assay: Inhibition of platelet aggregation in human whole blood; format: cell-based; conditions: Homo sapiens, Platelet; 10 minutes at 37°C; 10 µM adenosine added 5 minutes before; ADP (6-25 µM) induced; impedance technique
# Experimental: Whole blood was drawn from healthy donors and collected in 0.1 vol. of sodium citrate to prevent coagulation. Platelet aggregation was measured by the impedance technique using a Whole Blood Aggregometer.
# [6] = Oral bioavailability and half-life in fasted adult beagles; conditions: beagle, dog, in vivo, fasted adult beagles
# Experimental: Heparinized blood and urine were collected at selected intervals over 24 hours. Each sample was chilled, centrifuged at 4°C and frozen prior to HPLC analysis.
# male Mongolian gerbils = assay: Experimental stroke model (gerbil brain ischemia); format: in vivo; conditions: pretreatment with 500 mg/kg; bilateral carotid occlusion for 5 minutes; histology after seven days
# Experimental: In this test, male Mongolian gerbils were anesthetized with 2-3% halothane in N20:02 and the common carotid arteries exposed. Ischemia was then induced by bilateral occlusion of both common carotid arteries for 5 minutes. Seven days following the ischemic insult, brains were removed and processed for histology.
# [7] = target: T2, calf intestinal musosa adenosine deaminase (Bos taurus, UniProt P56658); assay: Adenosine deaminase activity inhibition; format: biochemical; conditions: 80 µM adenosine, pH 7.0, 10 minutes at 37°C
# T2 construct: calf intestinal musosa adenosine deaminase; from tissue; host or cells: calf intestinal mucosa
# T2 sequence (P56658 1-363): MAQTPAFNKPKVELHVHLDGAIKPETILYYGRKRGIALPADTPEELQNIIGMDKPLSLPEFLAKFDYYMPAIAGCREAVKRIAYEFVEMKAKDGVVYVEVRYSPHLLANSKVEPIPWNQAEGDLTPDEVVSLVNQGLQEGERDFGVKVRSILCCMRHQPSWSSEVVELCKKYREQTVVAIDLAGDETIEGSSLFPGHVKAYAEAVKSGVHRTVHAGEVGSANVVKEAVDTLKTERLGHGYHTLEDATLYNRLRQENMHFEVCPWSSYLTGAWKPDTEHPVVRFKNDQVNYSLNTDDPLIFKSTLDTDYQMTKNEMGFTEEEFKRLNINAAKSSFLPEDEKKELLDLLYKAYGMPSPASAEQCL
# Experimental: Different concentrations of the test compounds were incubated in the assay mixture for 10 minutes at 37°C. The reaction was monitored continuously for oxidation of NADH from the change in absorbance at 340 nm.
# [8] = cited from earlier work
smiles,measurement,setting,value
"NC(=O)c1ncn([C@@H]2O[C@H](CO)[C@@H](O)[C@H]2O)c1N [Compound No. 1, 5-amino-1-beta-D-ribofuranosylimidazole-4-carboxamide, reference compound]",Function Recovery % Baseline LVDP (% of hearts),Isolated rat hearts; 5 µM in perfusion buffer,64.2±1.5 (6) %
same,Function Recovery % Baseline LVDP (% of hearts),Isolated rat hearts; 20 µM in perfusion buffer,79.4±1.3 (34) %
same,IC50,[1]; Cavia porcellus,> 1000 µM
same,Tissue Adenosine Levels (% Increase vs. Saline),ischemic rat hearts,30%
same,inhibition at 5 µM,[2]; 5 µM test compound,5 ± 2%
same,inhibition at 50 µM,[2]; 50 µM test compound,10 ± 1%
same,EC50,[3],> 1000 µM
same,Extracellular Adenosine Levels,"[4]; 16 hours at 37°C, then no glucose, antimycin A, deoxycoformycin",1.64 ± 0.12 µM
same,Extracellular Adenosine Increase (%),"[4]; 16 hours, increase versus control",15.5%
same,IC50,[5],2700 µM
same,bioavailability,"[6]; oral, 10 mg/kg IV bolus and 20 mg/kg solution via stomach tube, read-out: Absolute Oral Bioavailability %",8%
same,half-life,[6],21 min
"Nc1c(C(=O)NC2CCCC2)ncn1[C@@H]1O[C@H](CO)[C@@H](O)[C@H]1O [Compound No. 10, 5-Amino-1-beta-D-ribofuranosylimidazole-4-N-(cyclopentyl)carboxamide]",Function Recovery % Baseline LVDP (% of hearts),Isolated rat hearts; 5 µM in perfusion buffer,83.7±0.7 (6) %
same,Function Recovery % Baseline LVDP (% of hearts),Isolated rat hearts; 20 µM in perfusion buffer,84.5±3.5 (2) %
same,Tissue Adenosine Levels (% Increase vs. Saline),ischemic rat hearts; listed as 10 (1-186),79% and 68%
same,EC50,[3],350 µM
same,effect in a gerbil model of brain ischemia (hippocampal pyramidal cell survival),male Mongolian gerbils,protective effects
"Nc1c(C(=O)NCc2ccccc2)ncn1[C@@H]1O[C@H](CO)[C@@H](O)[C@H]1O [Compound No. 11, 5-Amino-1-beta-D-ribofuranosylimidazole-4-N-(benzyl)carboxamide]",Function Recovery % Baseline LVDP (% of hearts),Isolated rat hearts; 5 µM in perfusion buffer,77.2±5.8 (7) %
same,Function Recovery % Baseline LVDP (% of hearts),Isolated rat hearts; 20 µM in perfusion buffer,85.7±6.2 (3) %
same,IC50,[1],200 µM
same,Tissue Adenosine Levels (% Increase vs. Saline),ischemic rat hearts; listed as 11 (1-226),53% and 45%
same,effect in a gerbil model of brain ischemia (hippocampal pyramidal cell survival),male Mongolian gerbils,protective effects
"Nc1c(C(=O)NC2CC2)ncn1[C@@H]1O[C@H](CO)[C@@H](O)[C@H]1O [Compound No. 12, 5-Amino-1-beta-D-ribofuranosylimidazole-4-N-(cyclopropyl)carboxamide]",IC50,[1],400 µM
same,Tissue Adenosine Levels (% Increase vs. Saline),ischemic rat hearts,29%
"CO[C@@H]1[C@H](O)[C@@H](CO)O[C@H]1n1cnc(C(N)=O)c1N [Compound No. 20, 5-Amino-1-(2-O-methyl-β-D-ribofuranosyl)-imidazole-4-carboxamide]",IC50,[7],1400 µM
"CCO[C@@H]1[C@H](O)[C@@H](CO)O[C@H]1n1cnc(C(N)=O)c1N [Compound No. 34, 5-amino-1-(2-O-ethyl-β-D-ribofuranosyl)-4-imidazole carboxamide]",IC50,[7],510 µM
"Nc1c(C(=O)NN2CCCCC2)ncn1[C@@H]1O[C@H](CO)[C@@H](O)[C@H]1O [Compound No. 36, 5-amino-4-(1-piperidinocarbamoyl)-1-β-D-ribofuranosylimidazole]",Tissue Adenosine Levels (% Increase vs. Saline),ischemic rat hearts,34%
Nc1ncnc2c1ncn2[C@@H]1O[C@H](CO)[C@@H](O)[C@H]1O [adenosine],half life of adenosine in blood,[8],< 0.167 min
